{"source": "patent US10669242B2", "about": "(priority 2016, dated 2020)", "data": [{"target": "T1, recombinant glucosyltransferase domain of C. difficile Toxin B/TcdB (Clostridioides difficile, UniProt P18177)", "T1 construct": "6-His (C); purchased R&D Systems 6246-GT", "T1 sequence (P18177 1-543)": "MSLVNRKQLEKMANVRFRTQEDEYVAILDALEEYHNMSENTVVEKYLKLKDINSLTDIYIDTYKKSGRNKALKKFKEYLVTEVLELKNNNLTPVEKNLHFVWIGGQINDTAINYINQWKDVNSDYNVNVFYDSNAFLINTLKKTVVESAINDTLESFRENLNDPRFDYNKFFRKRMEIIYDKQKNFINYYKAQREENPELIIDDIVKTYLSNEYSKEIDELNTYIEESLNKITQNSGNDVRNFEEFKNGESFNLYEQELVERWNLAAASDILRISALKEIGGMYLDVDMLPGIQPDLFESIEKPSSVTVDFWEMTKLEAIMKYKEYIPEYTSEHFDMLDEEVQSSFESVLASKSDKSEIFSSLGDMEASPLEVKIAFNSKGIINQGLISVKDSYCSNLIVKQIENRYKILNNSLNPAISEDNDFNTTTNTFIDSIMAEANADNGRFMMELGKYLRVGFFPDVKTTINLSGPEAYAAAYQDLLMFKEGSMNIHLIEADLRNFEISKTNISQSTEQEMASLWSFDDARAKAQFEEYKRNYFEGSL", "assay": "biochemical", "units": {"IC50": "nM"}, "values": [{"molecule": "COc1cnc(NC(=O)c2ccc(S(=O)(=O)N3Cc4ccc(Cl)cc4NC(=O)[C@H]3Cc3ccccn3)cc2)nc1", "note": "[Example 19h, (R)-4-((8-chloro-2-oxo-3-(pyridin-2-ylmethyl)-2,3-dihydro-1H-benzo[e][1,4]diazepin-4(5H)-yl)sulfonyl)-N-(5-methoxypyrimidin-2-yl)benzamide]", "IC50": "< 100"}, {"molecule": "O=C(Nc1ccccn1)c1ccc(C(=O)N2Cc3ccc(Cl)cc3NC(=O)[C@H]2Cc2ccccn2)cc1", "note": "[Example 19i, (R)-4-(8-chloro-2-oxo-3-(pyridin-2-ylmethyl)-2,3,4,5-tetrahydro-1H-benzo[e][1,4]diazepine-4-carbonyl)-N-(pyridin-2-yl)benzamide]", "IC50": "1000 to 10000"}, {"molecule": "O=C(Nc1ccccn1)c1cccc(S(=O)(=O)N2Cc3ccc(Cl)cc3NC(=O)[C@H]2Cc2ccccn2)c1", "note": "[Example 19j, (R)-3-((8-chloro-2-oxo-3-(pyridin-2-ylmethyl)-2,3-dihydro-1H-benzo[e][1,4]diazepin-4(5H)-yl)sulfonyl)-N-(pyridin-2-yl)benzamide]", "IC50": "10000 to 35000"}, {"molecule": "O=C(Nc1ccccn1)c1ccc(CN2Cc3ccc(Cl)cc3NC(=O)[C@H]2Cc2ccccn2)cc1", "note": "[Example 20a, (R)-4-((8-Chloro-2-oxo-3-(pyridin-2-ylmethyl)-2,3-dihydro-1H-benzo[e][1,4]diazepin-4(5H)-yl)methyl)-N-(pyridin-2-yl)benzamide]", "IC50": "1000 to 10000"}, {"molecule": "O=C(Nc1cc(CN2C(=O)c3ccc(Cl)cc3NC(=O)[C@H]2Cc2ccccn2)ccc1C(=O)O)c1ccccn1", "note": "[Example 21a, (R)-4-((8-Chloro-2,5-dioxo-3-(pyridin-2-ylmethyl)-2,3-dihydro-1H-benzo[e][1,4]diazepin-4(5H)-yl)methyl)-2-(picolinamido)benzoic Acid]", "IC50": "1000 to 10000"}, {"molecule": "CC(=O)Nc1cc(CN2C(=O)c3ccc(Cl)cc3NC(=O)[C@H]2Cc2ccccn2)ccc1C(=O)O", "note": "[Example 22a, (R)-2-Acetamido-4-((8-chloro-2,5-dioxo-3-(pyridin-2-ylmethyl)-2,3-dihydro-1H-benzo[e][1,4]diazepin-4(5H)-yl)methyl)benzoic Acid]", "IC50": "100 to 999"}, {"molecule": "COCC(=O)Nc1cc(CN2C(=O)c3ccc(Cl)cc3NC(=O)[C@H]2Cc2ccccn2)ccc1C(=O)O", "note": "[Example 22b]", "IC50": "100 to 999"}, {"molecule": "O=C(O)c1ccc(CN2C(=O)c3ccc(Cl)cc3NC(=O)[C@H]2Cc2ccccn2)cc1NC(=O)C1CCCCC1", "note": "[Example 22c]", "IC50": "100 to 999"}, {"molecule": "CN(C)CC(=O)Nc1cc(CN2C(=O)c3ccc(Cl)cc3NC(=O)[C@H]2Cc2ccccn2)ccc1C(=O)O", "note": "[Example 22d]", "IC50": "1000 to 10000"}, {"molecule": "COCCC(=O)Nc1cc(CN2C(=O)c3ccc(Cl)cc3NC(=O)[C@H]2Cc2ccccn2)ccc1C(=O)O", "note": "[Example 22e]", "IC50": "1000 to 10000"}, {"molecule": "O=C(Nc1cc(CN2C(=O)c3ccc(Cl)cc3NC(=O)[C@H]2Cc2ccccn2)ccc1C(=O)O)c1ccncc1", "note": "[Example 22f]", "IC50": "1000 to 10000"}, {"molecule": "O=C(Nc1cc(CN2C(=O)c3ccc(Cl)cc3NC(=O)[C@H]2Cc2ccccn2)ccc1C(=O)O)c1cccnc1", "note": "[Example 22g]", "IC50": "1000 to 10000"}, {"molecule": "O=C(CN1CCOCC1)Nc1cc(CN2C(=O)c3ccc(Cl)cc3NC(=O)[C@H]2Cc2ccccn2)ccc1C(=O)O", "note": "[Example 22h]", "IC50": "1000 to 10000"}, {"molecule": "CN1CCC(C(=O)Nc2cc(CN3C(=O)c4ccc(Cl)cc4NC(=O)[C@H]3Cc3ccccn3)ccc2C(=O)O)CC1", "note": "[Example 22i]", "IC50": "10000 to 35000"}, {"molecule": "CN1CCN(CC(=O)Nc2cc(CN3C(=O)c4ccc(Cl)cc4NC(=O)[C@H]3Cc3ccccn3)ccc2C(=O)O)CC1", "note": "[Example 22j]", "IC50": "1000 to 10000"}, {"molecule": "CN(C)CCC(=O)Nc1cc(CN2C(=O)c3ccc(Cl)cc3NC(=O)[C@H]2Cc2ccccn2)ccc1C(=O)O", "note": "[Example 22k]", "IC50": "100 to 999"}, {"molecule": "CN1CCC(CC(=O)Nc2cc(CN3C(=O)c4ccc(Cl)cc4NC(=O)[C@H]3Cc3ccccn3)ccc2C(=O)O)CC1", "note": "[Example 22l]", "IC50": "100 to 999"}, {"molecule": "O=C(O)c1ccc(CN2C(=O)c3ccc(Cl)cc3NC(=O)[C@H]2Cc2ccccn2)cc1NC(=O)C1CCOCC1", "note": "[Example 22m]", "IC50": "100 to 999"}, {"molecule": "O=C(CN1CCCC1)Nc1cc(CN2C(=O)c3ccc(Cl)cc3NC(=O)[C@H]2Cc2ccccn2)ccc1C(=O)O", "note": "[Example 22n]", "IC50": "100 to 999"}, {"molecule": "O=C(CO)Nc1cc(CN2C(=O)c3ccc(Cl)cc3NC(=O)[C@H]2Cc2ccccn2)ccc1C(=O)O", "note": "[Example 22o]", "IC50": "100 to 999"}, {"molecule": "Nc1ccc(CN2C(=O)c3ccc(Cl)cc3NC(=O)[C@H]2Cc2ccccn2)cc1", "note": "[Example 23a, (R)-4-(4-Aminobenzyl)-8-chloro-3-(pyridin-2-ylmethyl)-3,4-dihydro-1H-benzo[e][1,4]diazepine-2,5-dione]", "IC50": "1000 to 10000"}, {"molecule": "Cc1cc(CN2C(=O)c3ccc(Cl)cc3NC(=O)[C@H]2Cc2ccccn2)cc(C)c1N", "note": "[Example 24a, (R)-4-(4-Amino-3,5-dimethylbenzyl)-8-chloro-3-(pyridin-2-ylmethyl)-3,4-dihydro-1H-benzo[e][1,4]diazepine-2,5-dione]", "IC50": "10000 to 35000"}, {"molecule": "Cc1ccc(C(=O)N[C@H]2CC[C@H](CN3C(=O)c4ccc(Cl)cc4NC(=O)[C@H]3Cc3ccccn3)CC2)nc1", "note": "[Example 25a, N-((1R,4r)-4-(((R)-8-Chloro-2,5-dioxo-3-(pyridin-2-ylmethyl)-2,3-dihydro-1H-benzo[e][1,4]diazepin-4(5H)-yl)methyl)cyclohexyl)-5-methylpicolinamide]", "IC50": "100 to 999"}, {"molecule": "O=C(Nc1ccc(CN2C(=O)c3ccc(Cl)cc3NC(=O)[C@H]2Cc2cccnc2)cc1)c1ccccn1", "note": "[Example 26a, (R)—N-(4-((8-Chloro-2,5-dioxo-3-(pyridin-3-ylmethyl)-2,3-dihydro-1H-benzo[e][1,4]diazepin-4(5H)-yl)methyl)phenyl)picolinamide]", "IC50": "100 to 999"}, {"molecule": "O=C(Nc1ccc(CN2C(=O)c3ccc(Cl)cc3NC(=O)[C@H]2Cc2ccccn2)cc1)c1ccccn1", "note": "[Example 26b]", "IC50": "< 100"}, {"molecule": "Cc1ccnc(C(=O)Nc2ccc(CN3C(=O)c4ccc(Cl)cc4NC(=O)[C@H]3Cc3ccccn3)cc2)c1", "note": "[Example 26c]", "IC50": "< 100"}, {"molecule": "Cc1cccc(C(=O)Nc2ccc(CN3C(=O)c4ccc(Cl)cc4NC(=O)[C@H]3Cc3ccccn3)cc2)n1", "note": "[Example 26d]", "IC50": "1000 to 10000"}, {"molecule": "Cc1cccnc1C(=O)Nc1ccc(CN2C(=O)c3ccc(Cl)cc3NC(=O)[C@H]2Cc2ccccn2)cc1", "note": "[Example 26e]", "IC50": "1000 to 10000"}, {"molecule": "Cc1ccc(C(=O)Nc2ccc(CN3C(=O)c4ccc(Cl)cc4NC(=O)[C@H]3Cc3ccccn3)cc2)nc1", "note": "[Example 26f]", "IC50": "< 100"}, {"molecule": "O=C(Nc1ccc(CN2C(=O)c3ccc(Cl)cc3NC(=O)[C@H]2Cc2ccccn2)cc1)c1ncccc1Cl", "note": "[Example 26g]", "IC50": "1000 to 10000"}, {"molecule": "O=C(Nc1ccc(CN2C(=O)c3ccc(Cl)cc3NC(=O)[C@H]2Cc2ccccn2)cc1)c1cc(Cl)ccn1", "note": "[Example 26h]", "IC50": "100 to 999"}, {"molecule": "O=C(Nc1ccc(CN2C(=O)c3ccc(Cl)cc3NC(=O)[C@H]2Cc2ccccn2)cc1)c1ccc(Cl)cn1", "note": "[Example 26i]", "IC50": "< 100"}, {"molecule": "O=C(N[C@H]1CC[C@H](CN2C(=O)c3ccc(Cl)cc3NC(=O)[C@H]2Cc2ccccn2)CC1)c1ccccn1", "note": "[Example 26j]", "IC50": "100 to 999"}, {"molecule": "Cc1cc(CN2C(=O)c3ccc(Cl)cc3NC(=O)[C@H]2Cc2ccccn2)cc(C)c1NC(=O)c1ccccn1", "note": "[Example 26k]", "IC50": "100 to 999"}, {"molecule": "Cc1ccc(C(=O)Nc2c(C)cc(CN3C(=O)c4ccc(Cl)cc4NC(=O)[C@H]3Cc3ccccn3)cc2C)nc1", "note": "[Example 26l]", "IC50": "100 to 999"}, {"molecule": "O=C(Nc1ccc(CN2C(=O)c3ccc(Cl)cc3NC(=O)[C@H]2Cc2ccccn2)cc1)c1cccnc1O", "note": "[Example 27a, (R)—N-(4-((8-Chloro-2,5-dioxo-3-(pyridin-2-ylmethyl)-2,3-dihydro-1H-benzo[e][1,4]diazepin-4(5H)-yl)methyl)phenyl)-2-hydroxynicotinamide]", "IC50": "1000 to 10000"}, {"molecule": "O=C(CO)Nc1ccc(CN2C(=O)c3ccc(Cl)cc3NC(=O)[C@H]2Cc2ccccn2)cc1", "note": "[Example 27b]", "IC50": "100 to 999"}, {"molecule": "O=C(Nc1ccc(CN2C(=O)c3ccc(Cl)cc3NC(=O)[C@H]2Cc2ccccn2)cc1)c1ccncn1", "note": "[Example 27c]", "IC50": "100 to 999"}, {"molecule": "O=C(Nc1ccc(CN2C(=O)c3ccc(Cl)cc3NC(=O)[C@H]2Cc2ccccn2)cc1)c1cnccn1", "note": "[Example 27d]", "IC50": "100 to 999"}, {"molecule": "O=C(Nc1ccc(CN2C(=O)c3ccc(Cl)cc3NC(=O)[C@H]2Cc2ccccn2)cc1)c1nccs1", "note": "[Example 27e]", "IC50": "100 to 999"}, {"molecule": "O=C(Nc1ccc(CN2C(=O)c3ccc(Cl)cc3NC(=O)[C@H]2Cc2ccccn2)cc1)c1cscn1", "note": "[Example 27f]", "IC50": "< 100"}, {"molecule": "Cc1cc(C(=O)Nc2ccc(CN3C(=O)c4ccc(Cl)cc4NC(=O)[C@H]3Cc3ccccn3)cc2)no1", "note": "[Example 27g]", "IC50": "1000 to 10000"}, {"molecule": "O=C(Nc1ccc(CN2C(=O)c3ccc(Cl)cc3NC(=O)[C@H]2Cc2ccccn2)cc1)c1ncc[nH]1", "note": "[Example 27h]", "IC50": "< 100"}, {"molecule": "Cn1ccnc1C(=O)Nc1ccc(CN2C(=O)c3ccc(Cl)cc3NC(=O)[C@H]2Cc2ccccn2)cc1", "note": "[Example 27i]", "IC50": "100 to 999"}, {"molecule": "Cn1cnc(C(=O)Nc2ccc(CN3C(=O)c4ccc(Cl)cc4NC(=O)[C@H]3Cc3ccccn3)cc2)c1", "note": "[Example 27k]", "IC50": "< 100"}, {"molecule": "O=C(Nc1cccc(CN2C(=O)c3ccc(Cl)cc3NC(=O)[C@H]2Cc2ccccn2)c1)c1ccccn1", "note": "[Example 28a, (R)—N-(3-((8-Chloro-2,5-dioxo-3-(pyridin-2-ylmethyl)-2,3-dihydro-1H-benzo[e][1,4]diazepin-4(5H)-yl)methyl)phenyl)picolinamide]", "IC50": "< 100"}, {"molecule": "COCC(=O)Nc1cccc(CN2C(=O)c3ccc(Cl)cc3NC(=O)[C@H]2Cc2ccccn2)c1", "note": "[Example 28b]", "IC50": "1000 to 10000"}, {"molecule": "O=C(CS)Nc1ccc(CN2C(=O)c3ccc(Cl)cc3NC(=O)[C@H]2Cc2ccccn2)cc1", "note": "[Example 29a, (R)—N-(4-((8-Chloro-2,5-dioxo-3-(pyridin-2-ylmethyl)-2,3-dihydro-1H-benzo[e][1,4]diazepin-4(5H)-yl)methyl)phenyl)-2-mercaptoacetamide]", "IC50": "1000 to 10000"}, {"molecule": "CS(=O)(=O)Nc1ccc(CN2C(=O)c3ccc(Cl)cc3NC(=O)[C@H]2Cc2ccccn2)cc1", "note": "[Example 30a, (R)—N-(4-((8-Chloro-2,5-dioxo-3-(pyridin-2-ylmethyl)-2,3-dihydro-1H-benzo[e][1,4]diazepin-4(5H)-yl)methyl)phenyl)methanesulfonamide]", "IC50": "10000 to 35000"}, {"molecule": "COCC(=O)Nc1ccc(CN2C(=O)c3ccc(Cl)cc3NC(=O)[C@H]2Cc2ccccn2)cc1", "note": "[Example 30b]", "IC50": "10000 to 35000"}, {"molecule": "O=C1Nc2cc(Cl)ccc2C(=O)N(Cc2cccc(NS(=O)(=O)c3ccccn3)c2)[C@@H]1Cc1ccccn1", "note": "[Example 30c]", "IC50": "1000 to 10000"}]}]}
